From ChEMBL document CHEMBL1201862, “PubChem BioAssay data set” (2004)
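Compound exposure: 48 hours, 5 concentrations, 96-well plates. At the GI50, growth is halved.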 The source made the active and inactive calls. No stated cut-off is given here; in the data, active = GI50 up to about 1.1 µM and inactive = higher.

Experiments:
Test in all cases: NCI-60 cell line screen, 48 h
[1] = system: HOP-62
[2] = system: NCI-H23
[3] = system: CAKI-1
[4] = system: NCI-H226
[5] = system: SK-MEL-28
[6] = system: IGROV-1
[7] = system: XF498
[8] = system: ACHN
[9] = system: LXFL 529
[10] = system: NCI-H522
[11] = system: OVCAR-8
[12] = system: HCT-15
[13] = system: SNB-75
[14] = system: HCC 2998
[15] = system: HL-60
[16] = system: DLD-1
[17] = system: EKVX
[18] = system: UACC-62
[19] = system: UO-31
[20] = system: SNB-78
[21] = system: SR
[22] = system: DMS-273
[23] = system: TK-10
[24] = system: SF-539
[25] = system: SF-295
[26] = system: M19-MEL
[27] = system: RXF 393
[28] = system: SK-MEL-2
[29] = system: HOP-92
[30] = system: K562
[31] = system: OVCAR-5
[32] = system: SF-268
[33] = system: M14
[34] = system: OVCAR-3
[35] = system: SN12C
[36] = system: A549
[37] = system: RPMI-8226
[38] = system: CCRF-CEM
[39] = system: COLO 205
[40] = system: SW-620
[41] = system: KM12
[42] = system: U-251
[43] = system: OVCAR-4
[44] = system: HT-29
[45] = system: DMS-114
[46] = system: SK-MEL-5
[47] = system: NCI-H460
[48] = system: KM-20L2
[49] = system: HCT-116
[50] = system: 786-0
[51] = system: SK-OV-3
[52] = system: Malme-3M
[53] = system: SNB-19
[54] = system: MOLT-4
[55] = system: UACC-257
[56] = system: MCF7
[57] = system: HOP-18
[58] = system: LOX IMVI
[59] = system: A498
[60] = system: NCI/ADR-RES

**Q.** What does the source list for `COc1ccc(C(O)C(c2ccc(OCc3ccccc3)cc2)c2ccc(OCc3ccccc3)cc2)cc1` (stereo unspecified)?
**A.** GI50 [1]: > 100 µM (inactive); GI50 [2]: > 100 µM (inactive); GI50 [3]: > 100 µM (inactive); GI50 [4]: > 100 µM (inactive); GI50 [5]: > 100 µM (inactive); GI50 [6]: > 100 µM (inactive); GI50 [7]: > 100 µM (inactive); GI50 [8]: > 100 µM (inactive); GI50 [9]: > 100 µM (inactive); GI50 [10]: > 100 µM (inactive); GI50 [11]: > 100 µM (inactive); GI50 [12]: > 100 µM; GI50 [13]: > 100 µM (inactive); GI50 [14]: > 100 µM (inactive); GI50 [15]: > 100 µM (inactive); GI50 [16]: > 100 µM (inactive); GI50 [17]: > 100 µM (inactive); GI50 [18]: > 100 µM (inactive); GI50 [19]: > 100 µM (inactive); GI50 [20]: > 100 µM (inactive); GI50 [21]: > 100 µM (inactive); GI50 [22]: > 100 µM (inactive); GI50 [23]: > 100 µM (inactive); GI50 [24]: > 100 µM (inactive); GI50 [25]: > 100 µM (inactive); GI50 [26]: > 100 µM (inactive); GI50 [27]: > 100 µM (inactive); GI50 [28]: > 100 µM (inactive); GI50 [29]: > 100 µM (inactive); GI50 [30]: > 100 µM (inactive); GI50 [31]: > 100 µM (inactive); GI50 [32]: > 100 µM (inactive); GI50 [33]: > 100 µM (inactive); GI50 [34]: > 100 µM (inactive); GI50 [35]: > 100 µM (inactive); GI50 [36]: > 100 µM (inactive); GI50 [37]: > 100 µM (inactive); GI50 [38]: > 100 µM (inactive); GI50 [39]: > 100 µM (inactive); GI50 [40]: > 100 µM (inactive); GI50 [41]: > 100 µM (inactive); GI50 [42]: > 100 µM (inactive); GI50 [43]: > 100 µM (inactive); GI50 [44]: > 100 µM (inactive); GI50 [45]: > 100 µM (inactive); GI50 [46]: > 100 µM (inactive); GI50 [47]: > 100 µM (inactive); GI50 [48]: > 100 µM (inactive); GI50 [49]: > 100 µM (inactive); GI50 [50]: > 100 µM (inactive); GI50 [51]: > 100 µM (inactive); GI50 [52]: > 100 µM (inactive); GI50 [53]: > 100 µM (inactive)

**Q.** With `CCCCCCCC/C=C\CCCCCCCCCCCC(=O)O` [ERUCIC ACID] as the compound, how does the GI50 [1] read?
**A.** Its GI50 is 30.1 µM (inactive).

**Q.** What about the GI50 [2] of the same compound?
**A.** The GI50 was 25.5 µM (inactive).

**Q.** What about the GI50 [3] of the same compound?
**A.** Its GI50 is 42 µM (inactive).

**Q.** And the GI50 [54]?
**A.** Its GI50 is 37.3 µM (inactive).

**Q.** What about the GI50 [4] of the same compound?
**A.** The GI50 was 52.4 µM (inactive).

**Q.** What about the GI50 [5] of the same compound?
**A.** Its GI50 is 32.7 µM (inactive).

**Q.** And the GI50 [6]?
**A.** The GI50 was 55.1 µM (inactive).

**Q.** What about the GI50 [55] of the same compound?
**A.** The GI50 was 58.2 µM (inactive).

**Q.** What about the GI50 [7] of the same compound?
**A.** Its GI50 is 1.48 µM (inactive).

**Q.** And the GI50 [56]?
**A.** Its GI50 is 14.9 µM (inactive).

**Q.** What about the GI50 [10] of the same compound?
**A.** Its GI50 is 19.8 µM (inactive).

**Q.** And the GI50 [11]?
**A.** The GI50 was 37.2 µM (inactive).

**Q.** And the GI50 [12]?
**A.** Its GI50 is 43.7 µM.

**Q.** And the GI50 [57]?
**A.** Its GI50 is 46.2 µM (inactive).

**Q.** And the GI50 [13]?
**A.** Its GI50 is 37 µM (inactive).

**Q.** And the GI50 [14]?
**A.** Its GI50 is 44.1 µM (inactive).

**Q.** What about the GI50 [15] of the same compound?
**A.** The GI50 was 19.3 µM (inactive).

**Q.** And the GI50 [16]?
**A.** The GI50 was 42.4 µM (inactive).

**Q.** What about the GI50 [17] of the same compound?
**A.** The GI50 was 34 µM (inactive).

**Q.** What about the GI50 [18] of the same compound?
**A.** The GI50 was 27.5 µM (inactive).

**Q.** What about the GI50 [19] of the same compound?
**A.** Its GI50 is 74 µM (inactive).

**Q.** And the GI50 [20]?
**A.** Its GI50 is 44.4 µM (inactive).

**Q.** What about the GI50 [22] of the same compound?
**A.** Its GI50 is 22.2 µM (inactive).

**Q.** What about the GI50 [24] of the same compound?
**A.** Its GI50 is 16.8 µM (inactive).

**Q.** And the GI50 [25]?
**A.** Its GI50 is 35.3 µM (inactive).

**Q.** And the GI50 [58]?
**A.** The GI50 was 29.4 µM (inactive).

**Q.** What about the GI50 [26] of the same compound?
**A.** Its GI50 is 26.2 µM (inactive).

**Q.** And the GI50 [27]?
**A.** Its GI50 is 8.02 µM (inactive).

**Q.** What about the GI50 [28] of the same compound?
**A.** Its GI50 is 18 µM (inactive).

**Q.** And the GI50 [29]?
**A.** Its GI50 is 38.9 µM (inactive).

**Q.** What about the GI50 [30] of the same compound?
**A.** Its GI50 is 22.1 µM (inactive).

**Q.** And the GI50 [31]?
**A.** Its GI50 is 102 µM (inactive).

**Q.** What about the GI50 [32] of the same compound?
**A.** The GI50 was 52.4 µM (inactive).

**Q.** And the GI50 [34]?
**A.** Its GI50 is 17.8 µM (inactive).

**Q.** And the GI50 [35]?
**A.** Its GI50 is 32.6 µM (inactive).

**Q.** And the GI50 [36]?
**A.** The GI50 was 38.5 µM (inactive).

**Q.** And the GI50 [37]?
**A.** The GI50 was 45.6 µM (inactive).

**Q.** And the GI50 [38]?
**A.** The GI50 was 24.4 µM (inactive).

**Q.** And the GI50 [39]?
**A.** The GI50 was 20.2 µM (inactive).

**Q.** And the GI50 [59]?
**A.** Its GI50 is 0.891 µM (active).

**Q.** What about the GI50 [40] of the same compound?
**A.** The GI50 was 31.6 µM (inactive).

**Q.** And the GI50 [41]?
**A.** The GI50 was 22.3 µM (inactive).

**Q.** And the GI50 [42]?
**A.** The GI50 was 37.9 µM (inactive).

**Q.** What about the GI50 [43] of the same compound?
**A.** The GI50 was 30.8 µM (inactive).

**Q.** And the GI50 [44]?
**A.** Its GI50 is 43.8 µM (inactive).

**Q.** And the GI50 [46]?
**A.** Its GI50 is 18.8 µM (inactive).

**Q.** What about the GI50 [47] of the same compound?
**A.** The GI50 was 7.48 µM (inactive).

**Q.** What about the GI50 [48] of the same compound?
**A.** The GI50 was 38.3 µM (inactive).

**Q.** And the GI50 [49]?
**A.** Its GI50 is 22.3 µM (inactive).

**Q.** And the GI50 [60]?
**A.** Its GI50 is 86.3 µM (inactive).

**Q.** What about the GI50 [51] of the same compound?
**A.** The GI50 was > 85.9 µM (inactive).

**Q.** What about the GI50 [52] of the same compound?
**A.** The GI50 was 47.9 µM (inactive).

**Q.** What about the GI50 [53] of the same compound?
**A.** The GI50 was 30.8 µM (inactive).
